Source: US10954228B2 (NATIONAL INSTITUTES OF HEALTH, UNITED STATES DEPARTMENT OF …, priority 2016, dated 2021)

Each compound was assayed against Human LDHA (Homo sapiens (Human), UniProt P00338) (assay: human LDHA primary biochemical assay). Conditions: biochemical LDHA inhibitory activity, assay of Example 1; activity level classes defined in nM.
From the text: This example describes a human LDHA primary biochemical assay employed in the characterization of a compound of formula (I) in an embodiment of the invention.
Test compounds were placed in a Greiner Bio-One (Monroe, N.C.) 1536-well black solid bottom assay plate. 200 millimolar (mM) Tris HCl, pH 7.4, 100 micromolar (μM) EDTA and 0.01% TWEEN-20™, final concentration, was used as the assay buffer. The LDHA reagent was 2 nanomolar (nM) Human LDHA (Meridian Life Science, Inc., Memphis, Tenn.), final concentration, in assay buffer. The substrate reagent was 0.06 mM NADH and 0.2 mM sodium pyruvate, final concentration, in assay buffer. The resazurin/diaphorase coupling reagent was 0.037 mM resazurin and 0.133 milligrams per milliliter (mg/mL) diaphorase, final concentration, in assay buffer. The inhibition of LDHA activity was measured by fluorescence emission.

Compound	IC50
NS(=O)(=O)c1ccc(Cc2c(-c3cccc(-c4ccc(C5CCC5)cc4)c3)nn(-c3nc(C(=O)O)cs3)c2CC2CC2)cc1F [Compound 184, 2-(3-(4′-cyclobutyl-[1,1′-biphenyl]-3-yl)-5-(cyclopropylmethyl)-4-(3-fluoro-4-sulfamoylbenzyl)-1H-pyrazol-1-yl)thiazole-4-carboxylic acid]	100 to 1000 nM
Cc1cc(-c2cc(-c3nn(-c4nc(C(=O)O)cs4)c(CC4CC4)c3Cc3ccc(S(N)(=O)=O)c(F)c3)ccc2F)ccc1Cl [Compound 185, 2-(3-(4′-chloro-6-fluoro-3′-methyl-[1,1′-biphenyl]-3-yl)-5-(cyclopropylmethyl)-4-(3-fluoro-4-sulfamoylbenzyl)-1H-pyrazol-1-yl)thiazole-4-carboxylic acid]	100 to 1000 nM
NS(=O)(=O)c1ccc(Cc2c(-c3cccc(-c4ccc(C5CC5)c(F)c4)c3)nn(-c3nc(C(=O)O)cs3)c2CC2CC2)cc1F [Compound 171, 2-(3-(4′-cyclopropyl-3′-fluoro-[1,1′-biphenyl]-3-yl)-5-(cyclopropylmethyl)-4-(3-fluoro-4-sulfamoylbenzyl)-1H-pyrazol-1-yl)thiazole-4-carboxylic acid]	1000 to 57000 nM
N#Cc1ccc(-c2cc(-c3nn(-c4nc(C(=O)O)cs4)c(CC4CC4)c3Cc3ccc(S(N)(=O)=O)c(F)c3)ccc2F)cc1 [Compound 201, 2-(3-(4′-cyano-6-fluoro-[1,1′-biphenyl]-3-yl)-5-(cyclopropylmethyl)-4-(3-fluoro-4-sulfamoylbenzyl)-1H-pyrazol-1-yl)thiazole-4-carboxylic acid]	< 100 nM
NS(=O)(=O)c1ccc(Cc2c(-c3cccc(-c4ccc(CC(F)(F)F)cc4)c3)nn(-c3nc(C(=O)O)cs3)c2CC2CC2)cc1F [Compound 187, 2-(5-(cyclopropylmethyl)-4-(3-fluoro-4-sulfamoylbenzyl)-3-(4′-(2,2,2-trifluoroethyl)-[1,1′-biphenyl]-3-yl)-1H-pyrazol-1-yl)thiazole-4-carboxylic acid]	100 to 1000 nM
Cc1ccc(C#Cc2cccc(-c3nn(-c4nc(C(=O)O)cs4)c(C(C)C4CC4)c3Cc3ccc([S+](N)(=O)[O-])c(F)c3)c2)s1 (stereo not drawn) [Compound 116, 2-(5-(1-cyclopropylethyl)-4-(3-fluoro-4-sulfamoylbenzyl)-3-(3-((5-methylthiophen-2-yl)ethynyl)phenyl)-1H-pyrazol-1-yl)thiazole-4-carboxylic acid]	100 to 1000 nM
Cc1cc(-c2cccc(-c3nn(-c4nc(C(=O)O)cs4)c(CC4CC4)c3Cc3ccc(S(N)(=O)=O)c(F)c3)c2)ccc1Cl [Compound 170, 2-(3-(4′-chloro-3′-methyl-[1,1′-biphenyl]-3-yl)-5-(cyclopropylmethyl)-4-(3-fluoro-4-sulfamoylbenzyl)-1H-pyrazol-1-yl)thiazole-4-carboxylic acid]	1000 to 57000 nM
Cc1ccc(C#Cc2cccc(-c3nn(-c4nc(C(N)=O)cs4)c(CC4CC4)c3Cc3ccc(S(N)(=O)=O)c(F)c3)c2)s1 [Compound 163, 2-(5-(cyclopropylmethyl)-4-(3-fluoro-4-sulfamoylbenzyl)-3-(3-((5-methylthiophen-2-yl)ethynyl)phenyl)-1H-pyrazol-1-yl)thiazole-4-carboxamide]	1000 to 57000 nM
CC(C)c1ccc(-c2cncc(-c3nn(-c4nc(C(=O)O)cs4)c(CC4CC4)c3Cc3ccc(S(N)(=O)=O)c(F)c3)c2)cc1 [Compound 210, 2-[5-(cyclopropylmethyl)-4-[(3-fluoro-4-sulfamoylphenyl)methyl]-3-[5-(4-isopropylphenyl)pyridin-3-yl]pyrazol-1-yl]-1,3-thiazole-4-carboxylic acid]	< 100 nM
NS(=O)(=O)c1ccc(Cc2c(-c3cccc(-c4ccc(C5CC5)cc4)c3)nn(-c3nc(C(=O)O)cs3)c2CC2CC2)cc1F [Compound 183, 2-(3-(4′-cyclopropyl-[1,1′-biphenyl]-3-yl)-5-(cyclopropylmethyl)-4-(3-fluoro-4-sulfamoylbenzyl)-1H-pyrazol-1-yl)thiazole-4-carboxylic acid]	< 100 nM
NS(=O)(=O)c1ccc(Cc2c(-c3ccc(F)c(C4=CCCO4)c3)nn(-c3nc(C(=O)O)cs3)c2CC2CC2)cc1F [Compound 148, 2-(5-(cyclopropylmethyl)-3-(3-(4,5-dihydrofuran-2-yl)-4-fluorophenyl)-4-(3-fluoro-4-sulfamoylbenzyl)-1H-pyrazol-1-yl)thiazole-4-carboxylic acid]	< 100 nM
2-(5-([1,1′-bi(cyclopropan)]-2-yl)-4- (3-fluoro-4-sulfamoylbenzyl)- 3-(3-((5-methylthiophen-2- yl)ethynyl)phenyl)-1H-pyrazol-1- yl)thiazole-4-carboxylic acid [Compound 134]	100 to 1000 nM
CC(=O)c1cc(-c2nn(-c3nc(C(=O)O)cs3)c(CC3CC3)c2Cc2ccc(S(N)(=O)=O)c(F)c2)ccc1F [Compound 140, 2-(3-(3-acetyl-4-fluorophenyl)-5-(cyclopropylmethyl)-4-(3-fluoro-4-sulfamoylbenzyl)-1H-pyrazol-1-yl)thiazole-4-carboxylic acid]	< 100 nM

Results, then the compound that gave them:

IC50	Compound
< 100 nM	CC(C)c1cnc(-c2cccc(-c3nn(-c4nc(C(=O)O)cs4)c(CC4CC4)c3Cc3ccc(S(N)(=O)=O)c(F)c3)c2)s1 [Compound 215, 2-[5-(cyclopropylmethyl)-4-[(3-fluoro-4-sulfamoylphenyl)methyl]-3-[3-(5-isopropyl-1,3-thiazol-2-yl)phenyl]pyrazol-1-yl]-1,3-thiazole-4-carboxylic acid]
100 to 1000 nM	Cc1ccc(C#Cc2csc(-c3nn(-c4nc(C(=O)O)cs4)c(CC4CC4)c3Cc3ccc(S(N)(=O)=O)c(F)c3)c2)s1 [Compound 237, 2-(5-(cyclopropylmethyl)-4-(3-fluoro-4-sulfamoylbenzyl)-3-(4-((5-methylthiophen-2-yl)ethynyl)thiophen-2-yl)-1H-pyrazol-1-yl)thiazole-4-carboxylic acid]
100 to 1000 nM	NS(=O)(=O)c1ccc(Cc2c(-c3cccc(-c4ccc(C5CC5)cc4)c3)nn(-c3nc(C(=O)O)cs3)c2CC2CC2)cc1F [Compound 222, 2-(3-(4′-cyclopropyl-[1,1′-biphenyl]-3-yl)-5-(cyclopropylmethyl)-4-(3-fluoro-4-sulfamoylbenzyl)-1H-pyrazol-1-yl)thiazole-4-carboxylic acid]
100 to 1000 nM	CC(C)Cc1ccc(-c2cc(-c3nn(-c4nc(C(=O)O)cs4)c(CC4CC4)c3Cc3ccc(S(N)(=O)=O)c(F)c3)ccc2F)cc1 [Compound 227, 2-(5-(cyclopropylmethyl)-3-(6-fluoro-4′-isobutyl-[1,1′-biphenyl]-3-yl)-4-(3-fluoro-4-sulfamoylbenzyl)-1H-pyrazol-1-yl)thiazole-4-carboxylic acid]
< 100 nM	NS(=O)(=O)c1ccc(Cc2c(-c3cccc(-c4ccc(C(F)(F)F)cc4)c3)nn(-c3nc(C(=O)O)cs3)c2CC2CC2)cc1F [Compound 219, 2-(5-(cyclopropylmethyl)-4-(3-fluoro-4-sulfamoylbenzyl)-3-(4′-(trifluoromethyl)-[1,1′-biphenyl]-3-yl)-1H-pyrazol-1-yl)thiazole-4-carboxylic acid]
< 100 nM	Cc1ccc(C(=O)Cc2cccc(-c3nn(-c4nc(C(=O)O)cs4)c(CC4CC4)c3Cc3ccc(S(N)(=O)=O)c(F)c3)c2)s1 [Compound 242, 2-(5-(cyclopropylmethyl)-4-(3-fluoro-4-sulfamoylbenzyl)-3-(3-(2-(5-methylthiophen-2-yl)-2-oxoethyl)phenyl)-1H-pyrazol-1-yl)thiazole-4-carboxylic acid]
100 to 1000 nM	NS(=O)(=O)c1ccc(Cc2c(-c3ccc(F)c(-c4ccc(C(F)(F)C(F)(F)F)cc4)c3)nn(-c3nc(C(=O)O)cs3)c2CC2CC2)cc1F [Compound 225, 2-(5-(cyclopropylmethyl)-3-(6-fluoro-4′-(perfluoroethyl)-[1,1′-biphenyl]-3-yl)-4-(3-fluoro-4-sulfamoylbenzyl)-1H-pyrazol-1-yl)thiazole-4-carboxylic acid]
100 to 1000 nM	NS(=O)(=O)c1ccc(Cc2c(-c3cccc(-c4ccc(C(F)(F)C(F)(F)F)cc4)c3)nn(-c3nc(C(=O)O)cs3)c2CC2CC2)cc1F [Compound 224, 2-(5-(cyclopropylmethyl)-4-(3-fluoro-4-sulfamoylbenzyl)-3-(4′-(perfluoroethyl)-[1,1′-biphenyl]-3-yl)-1H-pyrazol-1-yl)thiazole-4-carboxylic acid]
< 100 nM	Cc1nc(C#Cc2cccc(-c3nn(-c4nc(C(=O)O)cs4)c(CCC4CC4)c3Cc3ccc(S(N)(=O)=O)c(F)c3)c2)cs1 [Compound 243, 2-(5-(2-cyclopropylethyl)-4-(3-fluoro-4-sulfamoylbenzyl)-3-(3-((2-methylthiazol-4-yl)ethynyl)phenyl)-1H-pyrazol-1-yl)thiazole-4-carboxylic acid]
100 to 1000 nM	NS(=O)(=O)c1ccc(Cc2c(-c3cccc(C#Cc4ccc(C5CCC5)s4)c3)nn(-c3nc(C(=O)O)cs3)c2CCC2CC2)cc1F [Compound 246, 2-(3-(3-((5-cyclobutylthiophen-2-yl)ethynyl)phenyl)-5-(2-cyclopropylethyl)-4-(3-fluoro-4-sulfamoylbenzyl)-1H-pyrazol-1-yl)thiazole-4-carboxylic acid]
< 100 nM	Cc1ccc(C#Cc2cccc(-c3nn(-c4nc(C(=O)O)cs4)c(CC4CC4)c3Cc3ccc(S(N)(=O)=O)c(F)c3)n2)s1 [Compound 231, 2-(5-(cyclopropylmethyl)-4-(3-fluoro-4-sulfamoylbenzyl)-3-(6-((5-methylthiophen-2-yl)ethynyl)pyridin-2-yl)-1H-pyrazol-1-yl)thiazole-4-carboxylic acid]
